In US8791267B2, “Biaryl PDE4 inhibitors for treating inflammatory, cardiovascular and CNS disorders” (Decode Genetics EHF, priority 2007, dated 2014) one finds IC50 data, which are given here for 30 compounds.

Experiment [1] addresses PDE4 (Homo sapiens, UniProt Q08499). The experiment can be described thus: In-vitro assay for PDE4 enzymes, real-time enzyme-coupled spectrophotometric assay (Table 9). The class given is biochemical. To be noted: human PDE4D; activity class, Table 9; read-out: hPDE4D.
The target in experiment [2] is PDE4B (Homo sapiens, UniProt Q07343). The experiment can be described thus: In-vitro assay for PDE4 enzymes, real-time enzyme-coupled spectrophotometric assay, PDE4B Activity (Table 10). The class given is biochemical. The note with it: human PDE4B (hPDE4B), enzyme-coupled spectrophotometric assay; read-out: PDE4B Activity, hPDE4B.
Chain of PDE4B (Q07343 whole entry): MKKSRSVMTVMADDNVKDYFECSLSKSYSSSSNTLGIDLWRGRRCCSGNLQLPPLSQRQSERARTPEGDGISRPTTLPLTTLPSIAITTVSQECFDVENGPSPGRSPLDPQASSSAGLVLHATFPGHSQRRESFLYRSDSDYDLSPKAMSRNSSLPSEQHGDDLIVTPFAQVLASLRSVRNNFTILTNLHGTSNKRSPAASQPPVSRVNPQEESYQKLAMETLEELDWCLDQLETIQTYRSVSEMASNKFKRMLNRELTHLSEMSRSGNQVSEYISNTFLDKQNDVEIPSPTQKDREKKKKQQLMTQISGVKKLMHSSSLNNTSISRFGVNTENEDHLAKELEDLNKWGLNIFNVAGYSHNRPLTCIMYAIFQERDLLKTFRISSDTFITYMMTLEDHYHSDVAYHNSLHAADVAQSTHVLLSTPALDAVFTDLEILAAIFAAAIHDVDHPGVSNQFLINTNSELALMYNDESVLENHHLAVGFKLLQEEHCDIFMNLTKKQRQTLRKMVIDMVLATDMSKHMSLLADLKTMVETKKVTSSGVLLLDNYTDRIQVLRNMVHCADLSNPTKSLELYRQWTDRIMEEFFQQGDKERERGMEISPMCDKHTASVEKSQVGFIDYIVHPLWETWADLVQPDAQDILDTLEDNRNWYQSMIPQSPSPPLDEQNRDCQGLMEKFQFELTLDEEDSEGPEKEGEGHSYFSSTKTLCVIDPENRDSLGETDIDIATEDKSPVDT

Counter-ions that a name gives are not always drawn.

Chain of PDE4 (Q08499 whole entry): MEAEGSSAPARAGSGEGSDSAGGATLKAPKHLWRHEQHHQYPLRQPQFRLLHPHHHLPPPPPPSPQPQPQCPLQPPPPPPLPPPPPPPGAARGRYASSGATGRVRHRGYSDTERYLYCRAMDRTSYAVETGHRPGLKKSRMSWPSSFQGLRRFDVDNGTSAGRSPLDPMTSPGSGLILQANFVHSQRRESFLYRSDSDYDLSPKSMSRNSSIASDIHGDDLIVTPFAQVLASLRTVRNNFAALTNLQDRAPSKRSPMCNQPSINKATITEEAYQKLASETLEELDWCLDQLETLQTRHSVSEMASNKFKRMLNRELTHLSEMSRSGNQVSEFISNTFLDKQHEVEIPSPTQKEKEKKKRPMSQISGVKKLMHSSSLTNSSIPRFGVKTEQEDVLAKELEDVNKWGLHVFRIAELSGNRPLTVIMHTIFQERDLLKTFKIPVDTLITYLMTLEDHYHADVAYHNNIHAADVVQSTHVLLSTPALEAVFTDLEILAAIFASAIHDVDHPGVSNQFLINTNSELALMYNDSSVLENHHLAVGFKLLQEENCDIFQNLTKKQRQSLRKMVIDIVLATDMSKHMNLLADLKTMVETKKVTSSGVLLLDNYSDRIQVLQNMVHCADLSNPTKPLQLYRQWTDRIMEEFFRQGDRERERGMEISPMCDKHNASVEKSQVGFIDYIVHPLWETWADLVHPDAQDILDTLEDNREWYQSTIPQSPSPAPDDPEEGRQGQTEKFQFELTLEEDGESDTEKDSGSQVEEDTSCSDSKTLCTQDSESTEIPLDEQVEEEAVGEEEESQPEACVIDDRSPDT

Take `COc1ccc(Cc2ccc(CN)cc2)c(F)c1-c1cccc([N+](=O)[O-])c1` [P-148]: the IC50 in experiment [1] and in experiment [2] was less than 5 µM each time.

For the compound `O=[N+]([O-])c1cccc(-c2nc(Cc3ccc(F)cc3)ccc2OC(F)F)c1` [P-057], the IC50 in experiment [1] and in experiment [2] was less than 5 µM in each case.

Consider `CNc1ccc(Cc2ccc(OC)c(-c3cccc(C(C)=O)c3)c2F)cn1` [P-336], for which the IC50 in experiment [1] and in experiment [2] was less than 5 µM each time.

In the case of `COc1ccc(Cc2ccc(F)cc2)nc1-c1cccc([N+](=O)[O-])c1` [P-023, 6-(4-fluoro-benzyl)-3-methoxy-2-(3-nitro-phenyl)-pyridine], the IC50 was less than 5 µM in experiment [1] and 5 to 20 µM in experiment [2].

Turning to `COc1ccc(Cc2ccc(NS(C)(=O)=O)c(O)c2)c(F)c1-c1cccc(Cl)c1` [P-264], the IC50 is less than 5 µM in experiment [1] and 5 to 20 µM in experiment [2].

Regarding `COc1ccc(Cc2ccc(N)nc2)c(F)c1-c1cccc(Cl)c1` [P-252, 5-(3′-Chloro-2-fluoro-6-methoxy-biphenyl-3-ylmethyl)-pyridin-2-ylamine], the IC50 in experiment [1] and in experiment [2] was less than 5 µM in each case.

Consider `COc1ccc(Cc2ccc(CNS(C)(=O)=O)c(O)c2)c(F)c1-c1cccc(Cl)c1` [P-299], for which the IC50 in experiment [1] was less than 5 µM; in experiment [2] it was 5 to 20 µM.

Take `COc1ccc(Cn2ccc(C#N)cc2=O)cc1-c1cccc([N+](=O)[O-])c1` [P-196, 1-(6-Methoxy-3′-nitro-biphenyl-3-ylmethyl)-2-oxo-1,2-dihydro-pyridine-4-carbonitrile]: the IC50 is less than 5 µM in experiment [1] and 5 to 20 µM in experiment [2].

Take `CCNC(=O)Nc1nc(Cc2ccc(OC)c(-c3cccc(Cl)c3)c2F)cs1` [P-346, 1-[4-(3′-Chloro-2-fluoro-6-methoxy-biphenyl-3-ylmethyl)-thiazol-2-yl]-3-ethyl-urea]: the results for the IC50 in experiment [1] and in experiment [2] were less than 5 µM and 5 to 20 µM, respectively.

Consider `Nc1ccc(Cc2ccc(OC3COC3)c(-c3cccc(Cl)c3)c2)cc1` [P-562, 4-[3′-Chloro-6-(oxetan-3-yloxy)-biphenyl-3-ylmethyl]-phenylamine], for which the IC50 in experiment [1] and in experiment [2] was less than 5 µM each time.

Consider `COc1ccc(Cc2ccc(CNC(C)=O)c(F)c2)c(F)c1-c1cccc(C(C)=O)c1` [P-329], for which the IC50 in experiment [1] and in experiment [2] was less than 5 µM each time.

For `COc1ccc(CN2CCCC2=O)cc1-c1cccc(SC)c1` [P-245, 1-(6-methoxy-3′-methylsulfanyl-biphenyl-3-ylmethyl)-pyrrolidin-2-one], the IC50 in experiment [1] was 5 to 20 µM; in experiment [2] it was less than 5 µM.

For the compound `COc1ccc(Cc2ccc(CNC(=O)CN(C)C)cc2)c(F)c1-c1cccc([N+](=O)[O-])c1` [P-175], the IC50 in experiment [1] and in experiment [2] was less than 5 µM each time.

As to `COc1ccc(Cc2ccc(=O)[nH]n2)cc1-c1cccc([N+](=O)[O-])c1` [P-009, 6-(6-Methoxy-3′-nitro-biphenyl-3-ylmethyl)-2H-pyridazin-3-one], the IC50 in experiment [1] and in experiment [2] was less than 5 µM throughout.

Turning to `COc1ccc(Cc2ccc(-n3cnnn3)cc2)c(F)c1-c1cccc(Cl)c1` [P-404, 1-[4-(3′-chloro-2-fluoro-6-methoxy-biphenyl-3-ylmethyl)-phenyl]-1H-tetrazole], the IC50 in experiment [1] and in experiment [2] was less than 5 µM throughout.

On to `NC(=O)Nc1ccc(Cc2ccc(OC3COC3)c(-c3cccc(Cl)c3)c2)cc1` [P-555, {4-[3′-Chloro-6-(oxetan-3-yloxy)-biphenyl-3-ylmethyl]-phenyl}-urea], for which the IC50 in experiment [1] and in experiment [2] was less than 5 µM each time.

As to `COc1ccc(Cc2ccc(C(N)=O)cc2)cc1-c1cccc(Cl)c1` [P-240, 4-(3′-Chloro-6-methoxy-biphenyl-3-ylmethyl)-benzamide], the IC50 is less than 5 µM in experiment [1] and 5 to 20 µM in experiment [2].

As to `CCNC(=O)OCc1ccc(Cc2ccc(OC)c(-c3cccc(Cl)c3)c2)cn1` [P-570, Ethyl-carbamic acid 5-(3′-chloro-6-methoxy-biphenyl-3-ylmethyl)-pyridin-2-ylmethyl ester hydrochloride], the IC50 in experiment [1] and in experiment [2] was less than 5 µM in each case.

For the compound `COc1ccc(Oc2ccc(N)cc2)c(F)c1-c1cccc(C(C)=O)c1` [P-283, 4-(3′-Acetyl-2-fluoro-6-methoxy-biphenyl-3-yloxy)-phenyl-amine hydrochloride salt], the IC50 in experiment [1] and in experiment [2] was less than 5 µM each time.

As for `CN(CC(N)=O)c1ccc(Cc2ccc(OC(F)F)c(-c3cccc(Cl)c3)c2)cn1` [P-621, 2-{[5-(3′-Chloro-6-difluoromethoxy-biphenyl-3-ylmethyl)-pyridin-2-yl]-methyl-amino}-acetamide], the IC50 in experiment [1] and in experiment [2] was less than 5 µM throughout.

Take `CC(C)(O)c1ccc(Cc2ccc(OC(F)F)c(-c3cccc(Cl)c3)c2)cn1` [P-610, 2-[5-(3′-Chloro-6-difluoromethoxy-biphenyl-3-ylmethyl)-pyridin-2-yl]-propan-2-ol hydrochloride]: the IC50 in experiment [1] and in experiment [2] was less than 5 µM in each case.

`COc1ccc(CN2C(=O)CC[C@@H]2CN)cc1-c1cccc([N+](=O)[O-])c1` [P-156, (R)-5-Aminomethyl-1-(6-methoxy-3′-nitro-biphenyl-3-ylmethyl)-pyrrolidin-2-one]: the IC50 in experiment [1] and in experiment [2] was less than 5 µM in each case.

On to `COc1ccc(CN2CCCC2=O)cc1-c1ccc2c(c1)OCO2` [P-045, 1-(3-Benzo[1,3]dioxol-5-yl-4-methoxy-benzyl)-pyrrolidin-2-one], for which the results for the IC50 in experiment [1] and in experiment [2] were 20 to 40 µM and 5 to 20 µM, respectively.

`CCNC(=O)Nc1ccc(Cc2ccc(OC)c(-c3cccc(C#N)c3)c2)cn1` [P-400, 1-[5-(3′-Cyano-6-methoxy-biphenyl-3-ylmethyl)-pyridin-2-yl]-3-ethyl-urea]: the IC50 in experiment [1] and in experiment [2] was less than 5 µM in each case.

`COc1ccc(CN2CCC[C@H]2CO)cc1-c1cccc([N+](=O)[O-])c1` [P-072, [(S)-1-(6-Methoxy-3′-nitro-biphenyl-3-ylmethyl)-pyrrolidin-2-yl]-methanol]: the IC50 in experiment [1] was in the range of 5 to 20 µM; in experiment [2] it was 21 to 40 µM.

In the case of `COc1cccc(-c2cc(CN3CCCC3=O)ccc2OC)c1` [P-184, 1-(6,3′-Dimethoxy-biphenyl-3-ylmethyl)-pyrrolidin-2-one], the IC50 in experiment [1] and in experiment [2] was 5 to 20 µM throughout.

`COc1ccc(Cc2ccnc(C#N)c2)c(F)c1-c1cccc(Cl)c1` [P-433, 4-(3′-Chloro-2-fluoro-6-methoxy-biphenyl-3-ylmethyl)-pyridine-2-carbonitrile]: the IC50 in experiment [1] and in experiment [2] was less than 5 µM in each case.

With `O=[N+]([O-])c1cccc(-c2cc(C(O)c3ccc(F)cc3)ccc2OC(F)(F)F)c1` (stereo not drawn) [P-079, (4-Fluoro-phenyl)-(3′-nitro-6-trifluoromethoxy-biphenyl-3-yl)-methanol], the IC50 in experiment [1] and in experiment [2] was less than 5 µM in each case.

`COc1ccc(Cn2cc(C#N)ccc2=O)cc1-c1cccc([N+](=O)[O-])c1` [P-195, 1-(6-Methoxy-3′-nitro-biphenyl-3-ylmethyl)-6-oxo-1,6-dihydro-pyridine-3-carbonitrile]: the IC50 in experiment [1] was 5 to 20 µM; in experiment [2] it was 21 to 40 µM.

Turning to `COc1ccc(Cc2ccc(N3CC(O)C3)nc2)c(F)c1-c1cccc(Cl)c1` [P-457, 1-[5-(3′-Chloro-2-fluoro-6-methoxy-biphenyl-3-ylmethyl)-pyridin-2-yl]-azetidin-3-ol], the IC50 in experiment [1] and in experiment [2] was less than 5 µM each time.
